Laboratory results taken from US20050222205A1, “Treatment of pain with ifendropil” (priority 2002, published 2005).
“Also recorded” adds a separate entry of the source.

What was measured:
alpha1-adrenoceptor = experiment: hypotension liability (alpha1-adrenoceptor antagonism)
[1] = test system: thermal stimulation of the lesioned paw; experiment: effect of agents on thermal stimulation of the lesioned paw; type: in vivo
neuropathic pain = experiment: model of neuropathic pain (Bennett model); type: in vivo
Description: Evidence of the incorrect conclusion reached by Chenard et al., 1991, supra, is provided by experiments conducted in a Bennett model (Bennett et al, 1988, Pain 33(1):87-107). The results are shown in the accompanying drawing.

[2] = test system: alpha-1 adrenergic receptor; settings: cited from earlier work
acute and chronic pain = settings: in vivo; cited from earlier work
[3] = biological target: NR2B-containing NMDA receptors (Homo sapiens, UniProt Q05586+Q13224); settings: voltage-independent and non-competitive manner; cited from earlier work
NR2B-containing NMDA receptors, sequence (Q13224 27-1484, other chains not shown): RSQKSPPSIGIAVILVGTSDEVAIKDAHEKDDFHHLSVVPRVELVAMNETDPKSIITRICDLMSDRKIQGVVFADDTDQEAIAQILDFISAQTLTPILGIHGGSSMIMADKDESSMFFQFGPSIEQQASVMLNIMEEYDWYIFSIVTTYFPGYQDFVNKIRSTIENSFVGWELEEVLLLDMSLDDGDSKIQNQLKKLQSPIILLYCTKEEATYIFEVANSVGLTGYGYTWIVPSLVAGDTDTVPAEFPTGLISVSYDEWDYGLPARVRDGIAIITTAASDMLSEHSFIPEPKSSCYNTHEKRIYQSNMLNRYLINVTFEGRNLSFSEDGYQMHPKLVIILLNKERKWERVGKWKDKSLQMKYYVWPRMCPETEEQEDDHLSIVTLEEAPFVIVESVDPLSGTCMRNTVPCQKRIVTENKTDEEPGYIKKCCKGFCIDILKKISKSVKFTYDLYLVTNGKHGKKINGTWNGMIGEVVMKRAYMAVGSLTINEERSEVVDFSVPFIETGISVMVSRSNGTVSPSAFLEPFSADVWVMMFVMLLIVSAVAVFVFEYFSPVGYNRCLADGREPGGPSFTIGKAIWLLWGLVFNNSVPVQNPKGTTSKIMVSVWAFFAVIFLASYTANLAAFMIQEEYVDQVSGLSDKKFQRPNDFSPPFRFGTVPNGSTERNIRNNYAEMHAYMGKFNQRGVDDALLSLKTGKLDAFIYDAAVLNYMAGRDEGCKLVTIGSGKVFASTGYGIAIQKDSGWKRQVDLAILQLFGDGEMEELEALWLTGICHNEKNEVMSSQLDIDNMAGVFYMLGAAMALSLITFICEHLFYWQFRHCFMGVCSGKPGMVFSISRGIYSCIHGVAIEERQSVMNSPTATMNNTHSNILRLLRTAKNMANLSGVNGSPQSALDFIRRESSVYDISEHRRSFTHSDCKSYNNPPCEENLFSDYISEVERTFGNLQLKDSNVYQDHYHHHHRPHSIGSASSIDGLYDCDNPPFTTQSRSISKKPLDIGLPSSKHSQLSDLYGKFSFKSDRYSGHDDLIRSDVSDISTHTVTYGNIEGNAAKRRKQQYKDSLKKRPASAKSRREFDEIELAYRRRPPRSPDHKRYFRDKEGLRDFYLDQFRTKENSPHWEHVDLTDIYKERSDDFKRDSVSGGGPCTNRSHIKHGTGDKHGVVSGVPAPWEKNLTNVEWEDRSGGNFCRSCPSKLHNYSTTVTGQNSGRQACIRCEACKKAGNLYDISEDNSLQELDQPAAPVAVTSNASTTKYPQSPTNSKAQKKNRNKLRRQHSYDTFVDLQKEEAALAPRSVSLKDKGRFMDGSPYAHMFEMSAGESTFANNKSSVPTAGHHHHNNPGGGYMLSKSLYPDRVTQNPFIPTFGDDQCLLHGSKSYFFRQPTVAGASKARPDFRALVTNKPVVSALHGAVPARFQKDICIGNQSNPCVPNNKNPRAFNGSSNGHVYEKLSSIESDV

Row | hypotension liability (alpha1-adrenoceptor antagonism) versus the other enantiomers (alpha1-adrenoceptor) | Compound | effectiveness on thermal stimulation of the lesioned paw, comparison of enantiomers ([1]; 3 mg/kg ip) | efficacy versus the other enantiomers in a model of neuropathic pain (neuropathic pain) | alpha-1 adrenergic receptor binding [2] | anti-nociceptive activity in animal models of acute and chronic pain (acute and chronic pain) | effectiveness on thermal stimulation of the lesioned paw relative to comparators ([1]; ifenprodil 3, 10 and 30 mg/kg ip, gabapentin 30 mg/kg ip, morphine 8 mg/kg ip) | block of NR2B-containing NMDA receptors [3]
1 | lower hypotension liability | CC(C(O)c1ccc(O)cc1)N1CCC(Cc2ccccc2)CC1 (single isomer, unassigned; (-)) [(−)-threo-ifenprodil] | the most effective enantiomer | does not produce a significant increase in efficacy over the other enantiomers | – | – | – | –
2 | – | CC(C(O)c1ccc(O)cc1)N1CCC(Cc2ccccc2)CC1 (stereo not shown) [Ifenprodil, 2-(4-benzylpiperidino)-1-(4-hydroxyphenyl)-1-propanol] | – | – | potent alpha-1 adrenergic receptor binding properties | exhibits anti-nociceptive activity | more effective than gabapentin; also recorded: almost as effective as morphine | selectively blocks NR2B-containing NMDA receptors
